According to patent publication US20160257927A1, “THREE-DIMENSIONAL CELL CULTURE USING NANOFIBER SLURRIES AND NANO-STRUCTURED SUBSTRATES” (UCL BUSINESS PLC, priority 2015, published 2016):

Tested on: Lung cancer A549 cells
Experiment: Chemosensitivity to anticancer drugs in 2D TCP and 3D scaffold (MTS CellTiter 96 cell viability)
Type: cell-based, human
Conditions: 48 hrs treatment; 2D TCP vs 3D CA/Rayon, 1:9 scaffold; 25000 cells seeded
Method: FIG. 18. Chemosensitivity of cancer cell lines in response to 48 hrs treatment with anticancer drugs when cultured in 2D Tissue Culture Plates (TCP) and 3D CA/Rayon, 1:9 scaffold.
25000 cells of tested cell lines were seeded in 2D TCP and 3D scaffold. Cells were treated with anticancer drugs for 48 hrs and then cell viability was measured using MTS CellTiter 96® Aqueous One Solution assay (Promega).

Compound: O=c1[nH]cc(F)c(=O)[nH]1 [5-fluorouracil]
- chemosensitivity (cell viability) of A549 cells: more sensitive to 5-fluorouracil and doxorubicin in 2D TCP than in 3D scaffolds

Compound: COc1cccc2c1C(=O)c1c(O)c3c(c(O)c1C2=O)C[C@@](O)(C(=O)CO)C[C@@H]3O[C@H]1C[C@H](N)[C@H](O)[C@H](C)O1 [doxorubicin]
- chemosensitivity (cell viability) of A549 cells: more sensitive to 5-fluorouracil and doxorubicin in 2D TCP than in 3D scaffolds
